Laboratory results reported in patent US20080194585A1, “Fungicidal Pyrazine Derivatives” (priority 2005, published 2008).
Marks after values point to notes of the source that are not given here.

Legend:
Sclerotinia sclerotiorum = test: Test C: cucumber white mold, preventive spray on cucumber seedlings; settings: 40 ppm (*)
[1] = tested on: Puccinia recondita f. sp. tritici; test: Test K: wheat leaf rust, preventive spray on wheat seedlings; settings: 40 ppm (*)
Rhizoctonia oryzae = test: Test G: turf brown patch, preventive spray on creeping bent grass seedlings; settings: 40 ppm (*)
Description: (the causal agent of turf brown patch) and incubated in a saturated atmosphere at 27° C. for 24 h, and then moved to a growth chamber at 27° C. for 5 days, after which disease ratings were made.

Septoria tritici = test: Test J: wheat leaf blotch, preventive spray on wheat seedlings; assay type: in vivo; settings: 40 ppm (*)
Description: A dash (-) indicates no test results.

Septoria nodorum = test: Test H: wheat glum blotch, preventive spray on wheat seedlings; settings: 40 ppm (*)
Description: (the causal agent of wheat glum blotch) and incubated in a saturated atmosphere at 20° C. for 48 h, and then moved to a growth chamber at 22° C. for 5 days, after which disease ratings were made.

[2] = tested on: Erysiphe graminis f. sp. tritici; test: Test L: wheat powdery mildew, preventive spray on wheat seedlings; settings: 40 ppm (*)
Pythium aphanidermatum = test: Test A: bluegrass pythium blight, preventive spray on bluegrass seedlings; settings: 40 ppm (*)
Plasmopara viticola = test: Test D: grape downy mildew, spray after inoculation of grape seedlings; assay type: in vivo
Description: Upon removal, disease ratings were made. […] A dash (-) indicates no test results.

Botrytis cinerea = test: Test E: tomato botrytis, preventive spray on tomato seedlings; settings: 40 ppm (*)
Phytophthora infestans = test: whole plant or invertebrate; assay type: in vivo; settings: 40 ppm (*)
[3] = tested on: Colletotrichum orbiculare; test: Test B: cucumber Colletotrichum anthracnose, preventive spray on cucumber seedlings; settings: 40 ppm (*)

SMILES | Test C disease control rating (Sclerotinia sclerotiorum) | Test K disease control rating [1] | Test G disease control rating (Rhizoctonia oryzae) | Test J disease control rating (Septoria tritici) | Test H disease control rating (Septoria nodorum) | Test L disease control rating [2] | Test A disease control rating (Pythium aphanidermatum) | Test D disease control rating (Plasmopara viticola; 40 ppm (*)) | Test E disease control rating (Botrytis cinerea) | Test F disease control rating (Phytophthora infestans) | Test B disease control rating [3] | Test D disease control rating (Plasmopara viticola; 200 ppm) [%]
CC1CCCCC1n1c(-c2c(F)cccc2F)c(Cl)nc(-n2cccn2)c1=O (stereo not shown) [compound 224] | 0* % | 94* % | 92* % | 100* % | 99* % | 83* % | 0* % | 0* % | 100* % | 0* % | 66* % | –
CC1CCCCC1n1c(-c2c(F)cccc2F)c(Cl)nc(-n2cncn2)c1=O (stereo not shown) [compound 225] | 0* % | 73* % | 0* % | 100* % | 73* % | 0* % | 0* % | 0* % | 100* % | 0* % | 0* % | –
CCCCn1c(-c2c(F)cc(F)cc2F)c(Cl)nc(N2CCC=N2)c1=O [compound 226] | 0* % | 82* % | 0* % | 100* % | 95* % | 46* % | 0* % | 0* % | 0* % | 0* % | 0* % | –
CCCCn1c(-c2c(F)cc(F)cc2F)c(Cl)nc(-n2cccn2)c1=O [compound 227] | 0* % | 100* % | 100* % | 100* % | 100* % | 99* % | 0* % | 96* % | 100* % | 0* % | 96* % | –
CCCCn1c(-c2c(F)cc(F)cc2F)c(Cl)nc(-n2ccc(C)n2)c1=O [compound 228] | 0* % | 99* % | 99* % | 99* % | 100* % | 99* % | 0* % | 77* % | 100* % | 0* % | 98* % | –
CCCCn1c(-c2c(F)cc(F)cc2F)c(Cl)nc(-n2cncn2)c1=O [compound 229] | 0* % | 17* % | 16* % | 57* % | 82* % | 88* % | 0* % | 0* % | 95* % | 0* % | 0* % | –
CCCCn1c(-c2c(F)cc(F)cc2F)c(Cl)nc(-n2nccc2C)c1=O [compound 239] | 0* % | 0* % | 0* % | 19* % | 0* % | 0* % | 0* % | 0* % | 0* % | 0* % | 0* % | –
CCCCn1c(-c2c(F)cc(F)cc2F)c(Cl)nc(-c2ccccn2)c1=O [compound 240] | 0* % | 67* % | 0* % | 93* % | 78* % | 98* % | 0* % | 0* % | 100* % | 0* % | 9* % | –
Cc1ccn(-c2nc(Cl)c(-c3c(F)cccc3F)n(CC(C)C)c2=O)n1 [compound 241] | 0* % | 100* % | 85* % | 100* % | 95* % | 93* % | 0* % | 33* % | 100* % | 0* % | 92* % | –
Cc1ccn(-c2nc(C)c(-c3c(F)cccc3F)n(CC(C)C)c2=O)n1 [compound 243] | 0* % | 45* % | 68* % | 86* % | 0* % | 98* % | 0* % | 0* % | 100* % | 0* % | 0* % | –
CC(C)Cn1c(-c2cccnc2Cl)c(Cl)nc(-n2cccn2)c1=O [compound 244] | 0* % | 8* % | 0* % | 9* % | 0* % | 0* % | 0* % | 31* % | 42* % | 0* % | 0* % | –
COc1cccc(-c2c(Cl)nc(-n3cncn3)c(=O)n2CC(C)C)c1 [compound 245] | 0* % | 0* % | 0* % | 46* % | 0* % | 0* % | 0* % | 0* % | 0* % | 0* % | 0* % | –
COc1cccc(-c2c(Cl)nc(-n3cccn3)c(=O)n2CC(C)C)c1 [compound 246] | 0* % | 0* % | 0* % | 26* % | 0* % | 78* % | 0* % | – | 99* % | 0* % | 0* % | 9
Cc1cccc(-c2c(Cl)nc(-n3cncn3)c(=O)n2CC(C)C)c1 [compound 247] | 0* % | 0* % | 0* % | 35* % | 0* % | 0* % | 0* % | 0* % | 0* % | 0* % | 0* % | –
